Data: PubChem BioAssay AID328 (DTP/NCI, 2004)
“And” between values parts separate entries of the source, which are not always exact repeats. Equal entries are not always repeated. Toxic doses and inconclusive results are not listed.

Test system: BDF1 mice, P388 leukemia ip, median survival T/C
Test: NCI In Vivo Anticancer Drug Screen. Data for tumor model P388 Leukemia (intraperitoneal) in B6D2F1 (BDF1) mice
Details: endpoint: median survival time, higher = longer survival
In short: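 Survival ratio, drug arm over vehicle arm, in mice with a transplanted tumour.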

[1] = dose: 12.5 mg/kg/injection, schedule: Q01DX009 (ip), vehicle: saline
[2] = dose: 100.0 mg/kg/injection, schedule: Q01DX009 (ip), vehicle: saline with Tween-80
[3] = dose: 200.0 mg/kg/injection, schedule: Q01DX009 (ip), vehicle: saline with Tween-80
[4] = dose: 50.0 mg/kg/injection, schedule: Q01DX009 (ip), vehicle: saline with Tween-80

## COC1=NCN=C2SC=C(N)N=C12
[1]
  T/C: 100 % of control
dose: 25.0 mg/kg/injection, schedule: Q01DX009 (ip), vehicle: saline
  T/C: 98 % of control
dose: 50.0 mg/kg/injection, schedule: Q01DX009 (ip), vehicle: saline
  T/C: 105 % of control

## Cc1ccc(Oc2ccc3cc[n+](C)cc3c2)cc1
dose: 2.75 mg/kg/injection, schedule: Q01DX009 (ip), vehicle: saline
  T/C: 94 % of control
dose: 4.12 mg/kg/injection, schedule: Q01DX009 (ip), vehicle: saline
  T/C: 105 % of control
dose: 9.5 mg/kg/injection, schedule: Q01DX009 (ip), vehicle: saline
  T/C: 99 % of control
[1]
  T/C: 118 % of control

## CC(=O)OCC(Br)C(Br)COC(C)=O (stereo unspecified)
[2]
  T/C: 109 % of control
[3]
  T/C: 109 % of control
dose: 400.0 mg/kg/injection, schedule: Q01DX009 (ip), vehicle: saline with Tween-80
  T/C: 109 % of control

## O=S1(=O)C=C(c2ccccc2)C1
[4]
  T/C: 108 % of control
[2]
  T/C: 107 % of control

## CCCCCCCCCCCCCCCCCCCCCCCCCCCC(=O)OCC(O)CO (stereo unspecified)
dose: 0.25 mg/kg/injection, schedule: Q01DX009 (ip), vehicle: saline + alcohol
  T/C: 110 % of control
dose: 1.0 mg/kg/injection, schedule: Q01DX009 (ip), vehicle: saline + alcohol
  T/C: 105 % of control

## O=C(c1ccccc1Cl)c1cccc2ccccc12
dose: 22.0 mg/kg/injection, schedule: Q01DX009 (ip), vehicle: Klucel (hydroxypropylcellulose) (HPC)
  T/C: 100 % of control
dose: 35.0 mg/kg/injection, schedule: Q01DX009 (ip), vehicle: Klucel (hydroxypropylcellulose) (HPC)
  T/C: 100 % of control
dose: 175.0 mg/kg/injection, schedule: Q04DX003 (ip), vehicle: Klucel (hydroxypropylcellulose) (HPC)
  T/C: 100 % of control
dose: 400.0 mg/kg/injection, schedule: Q04DX003 (ip), vehicle: Klucel (hydroxypropylcellulose) (HPC)
  T/C: 104 % of control
dose: 600.0 mg/kg/injection, schedule: Q04DX003 (ip), vehicle: Klucel (hydroxypropylcellulose) (HPC)
  T/C: 104 % of control

## C[n+]1ccc(Nc2ccc(NC(=O)c3ccc(N)cc3)cc2)cc1
dose: 12.5 mg/kg/injection, schedule: Q01DX009 (ip), vehicle: water
  T/C: 101 % of control
dose: 12.5 mg/kg/injection, schedule: Q04DX003 (ip), vehicle: water
  T/C: 100 % of control
dose: 25.0 mg/kg/injection, schedule: Q04DX003 (ip), vehicle: water
  T/C: 98 % of control
dose: 50.0 mg/kg/injection, schedule: Q04DX003 (ip), vehicle: water
  T/C: 100 % of control and 106 % of control
dose: 100.0 mg/kg/injection, schedule: Q01DX009 (ip), vehicle: water
  T/C: 155 % of control
dose: 100.0 mg/kg/injection, schedule: Q04DX003 (ip), vehicle: water
  T/C: 116 % of control and 117 % of control
dose: 200.0 mg/kg/injection, schedule: Q01DX009 (ip), vehicle: water
  T/C: 154 % of control
dose: 400.0 mg/kg/injection, schedule: Q01DX009 (ip), vehicle: water
  T/C: 180 % of control
dose: 500.0 mg/kg/injection, schedule: Q04DX003 (ip), vehicle: water
  T/C: 123 % of control
dose: 600.0 mg/kg/injection, schedule: Q04DX003 (ip), vehicle: water
  T/C: 103 % of control

## CNC(C)(C)C(SS)c1ccc(Cl)cc1 (stereo unspecified)
dose: 6.25 mg/kg/injection, schedule: Q01DX009 (ip), vehicle: saline with Tween-80
  T/C: 110 % of control
dose: 12.5 mg/kg/injection, schedule: Q01DX009 (ip), vehicle: saline with Tween-80
  T/C: 118 % of control
dose: 25.0 mg/kg/injection, schedule: Q01DX009 (ip), vehicle: saline with Tween-80
  T/C: 105 % of control and 121 % of control
dose: 25.0 mg/kg/injection, schedule: Q04DX003 (ip), vehicle: saline with Tween-80
  T/C: 101 % of control
[4]
  T/C: 96 % of control and 110 % of control
dose: 50.0 mg/kg/injection, schedule: Q04DX003 (ip), vehicle: saline with Tween-80
  T/C: 99 % of control

## COc1cc2c3c(c1)-c1c(ccc(OC)c1Oc1nnnn1-c1ccccc1)CC3N(C)CC2 (stereo unspecified)
dose: 12.5 mg/kg/injection, schedule: Q04DX003 (ip), vehicle: saline
  T/C: 108 % of control
dose: 25.0 mg/kg/injection, schedule: Q04DX003 (ip), vehicle: saline
  T/C: 115 % of control
dose: 50.0 mg/kg/injection, schedule: Q04DX003 (ip), vehicle: saline
  T/C: 115 % of control
dose: 100.0 mg/kg/injection, schedule: Q04DX003 (ip), vehicle: saline
  T/C: 108 % of control
dose: 200.0 mg/kg/injection, schedule: Q04DX003 (ip), vehicle: saline
  T/C: 115 % of control

## O=C(Nc1cccc(Cl)c1)NN(c1ccccc1)C1CCS(=O)(=O)C1 (stereo unspecified)
[4]
  T/C: 99 % of control
[2]
  T/C: 98 % of control
[3]
  T/C: 100 % of control

## C/C=C/C=N/NC(=S)NC
dose: 6.75 mg/kg/injection, schedule: Q01DX009 (ip), vehicle: saline with Tween-80
  T/C: 109 % of control
dose: 13.5 mg/kg/injection, schedule: Q01DX009 (ip), vehicle: saline with Tween-80
  T/C: 91 % of control
dose: 27.0 mg/kg/injection, schedule: Q01DX009 (ip), vehicle: saline with Tween-80
  T/C: 86 % of control
